Measured values taken from patent US10526309B2, “Pan-TAM inhibitors and Mer/Axl dual inhibitors” (The University of North Carolina at Chapel Hill, priority 2015, dated 2020).

Key:
Type in all cases: biochemical
Mer = target: T1, Mer (Homo sapiens, UniProt Q12866); assay: Mer kinase inhibition IC50; settings: Example 6; read-out: MerTK IC50
T1 sequence (Q12866 21-999): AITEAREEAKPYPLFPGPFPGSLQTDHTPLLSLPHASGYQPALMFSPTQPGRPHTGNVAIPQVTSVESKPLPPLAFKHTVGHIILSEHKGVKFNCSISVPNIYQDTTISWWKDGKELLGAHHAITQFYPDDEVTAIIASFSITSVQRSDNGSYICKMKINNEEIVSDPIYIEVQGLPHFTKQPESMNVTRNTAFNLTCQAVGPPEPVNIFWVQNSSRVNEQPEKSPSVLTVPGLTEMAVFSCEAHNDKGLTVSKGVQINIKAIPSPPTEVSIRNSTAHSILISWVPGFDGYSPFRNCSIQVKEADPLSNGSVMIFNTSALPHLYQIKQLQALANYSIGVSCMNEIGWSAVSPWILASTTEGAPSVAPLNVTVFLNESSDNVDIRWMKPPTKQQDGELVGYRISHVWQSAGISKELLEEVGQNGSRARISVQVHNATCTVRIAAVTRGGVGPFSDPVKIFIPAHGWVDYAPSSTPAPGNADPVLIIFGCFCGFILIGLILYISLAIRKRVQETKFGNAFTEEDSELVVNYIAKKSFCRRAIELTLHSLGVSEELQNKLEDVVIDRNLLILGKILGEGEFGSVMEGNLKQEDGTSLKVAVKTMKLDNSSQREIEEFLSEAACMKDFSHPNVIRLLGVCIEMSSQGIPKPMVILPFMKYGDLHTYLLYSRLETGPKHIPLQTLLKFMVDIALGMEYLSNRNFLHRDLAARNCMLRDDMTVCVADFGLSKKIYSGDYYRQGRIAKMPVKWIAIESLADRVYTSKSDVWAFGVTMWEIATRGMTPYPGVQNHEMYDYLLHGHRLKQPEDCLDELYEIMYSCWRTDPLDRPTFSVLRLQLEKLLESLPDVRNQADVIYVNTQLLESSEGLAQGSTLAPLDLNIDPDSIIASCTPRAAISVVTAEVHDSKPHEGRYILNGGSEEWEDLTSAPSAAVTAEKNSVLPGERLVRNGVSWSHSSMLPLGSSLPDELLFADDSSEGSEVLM

Axl = target: T2, Axl (Homo sapiens, UniProt P30530); assay: Axl kinase inhibition IC50; settings: Example 6
T2 sequence (P30530 26-894): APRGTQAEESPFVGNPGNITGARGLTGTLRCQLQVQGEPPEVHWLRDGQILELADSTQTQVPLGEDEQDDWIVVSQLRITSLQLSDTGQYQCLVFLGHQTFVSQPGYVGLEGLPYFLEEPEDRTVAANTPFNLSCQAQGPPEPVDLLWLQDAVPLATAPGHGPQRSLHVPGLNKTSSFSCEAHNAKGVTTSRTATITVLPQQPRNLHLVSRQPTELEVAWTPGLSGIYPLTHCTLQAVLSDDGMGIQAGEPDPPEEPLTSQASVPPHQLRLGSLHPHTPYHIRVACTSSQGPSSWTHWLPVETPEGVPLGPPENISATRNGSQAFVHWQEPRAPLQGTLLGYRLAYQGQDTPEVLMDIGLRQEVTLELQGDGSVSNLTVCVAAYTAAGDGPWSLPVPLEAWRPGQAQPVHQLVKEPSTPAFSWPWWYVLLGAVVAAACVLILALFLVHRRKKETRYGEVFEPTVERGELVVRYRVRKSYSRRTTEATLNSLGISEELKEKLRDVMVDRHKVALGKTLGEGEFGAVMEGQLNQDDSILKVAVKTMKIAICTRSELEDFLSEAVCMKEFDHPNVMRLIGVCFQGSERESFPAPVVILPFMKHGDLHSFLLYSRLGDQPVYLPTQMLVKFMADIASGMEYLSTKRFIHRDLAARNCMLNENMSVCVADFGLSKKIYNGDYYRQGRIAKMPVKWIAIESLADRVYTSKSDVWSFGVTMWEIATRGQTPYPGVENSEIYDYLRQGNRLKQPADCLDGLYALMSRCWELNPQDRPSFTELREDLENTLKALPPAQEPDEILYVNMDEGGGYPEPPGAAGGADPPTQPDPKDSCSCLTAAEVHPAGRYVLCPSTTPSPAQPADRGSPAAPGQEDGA

Tyro3 = target: T3, Tyro3 (Homo sapiens, UniProt Q06418); assay: Tyro3 kinase inhibition IC50; settings: Example 6; read-out: Tyro IC50
T3 sequence (Q06418 41-890): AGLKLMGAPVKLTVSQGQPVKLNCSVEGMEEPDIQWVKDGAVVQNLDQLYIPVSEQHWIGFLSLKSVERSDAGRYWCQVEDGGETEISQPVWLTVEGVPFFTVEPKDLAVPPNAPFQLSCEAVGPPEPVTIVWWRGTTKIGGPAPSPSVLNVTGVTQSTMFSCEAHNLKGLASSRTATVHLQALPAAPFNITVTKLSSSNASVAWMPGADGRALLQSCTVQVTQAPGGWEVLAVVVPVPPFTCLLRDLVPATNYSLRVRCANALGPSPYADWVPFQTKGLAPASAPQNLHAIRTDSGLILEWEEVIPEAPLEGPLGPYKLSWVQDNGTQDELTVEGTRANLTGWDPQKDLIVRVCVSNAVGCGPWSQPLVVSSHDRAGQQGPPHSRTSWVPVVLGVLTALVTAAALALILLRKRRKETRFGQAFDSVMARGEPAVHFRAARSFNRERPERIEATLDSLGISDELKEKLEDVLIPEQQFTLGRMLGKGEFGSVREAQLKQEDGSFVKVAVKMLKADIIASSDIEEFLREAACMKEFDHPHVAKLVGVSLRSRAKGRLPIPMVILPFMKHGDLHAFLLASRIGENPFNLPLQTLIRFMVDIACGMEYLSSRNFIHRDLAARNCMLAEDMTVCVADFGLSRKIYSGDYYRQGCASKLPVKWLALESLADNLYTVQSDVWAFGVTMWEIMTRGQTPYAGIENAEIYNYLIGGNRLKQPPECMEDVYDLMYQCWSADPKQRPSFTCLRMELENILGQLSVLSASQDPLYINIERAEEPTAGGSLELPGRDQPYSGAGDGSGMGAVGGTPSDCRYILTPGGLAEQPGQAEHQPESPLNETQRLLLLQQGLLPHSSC

FLT3 = target: T4, FLT3 (Homo sapiens, UniProt P36888); assay: FLT3 kinase inhibition IC50; settings: Example 6
T4 sequence (P36888 27-993): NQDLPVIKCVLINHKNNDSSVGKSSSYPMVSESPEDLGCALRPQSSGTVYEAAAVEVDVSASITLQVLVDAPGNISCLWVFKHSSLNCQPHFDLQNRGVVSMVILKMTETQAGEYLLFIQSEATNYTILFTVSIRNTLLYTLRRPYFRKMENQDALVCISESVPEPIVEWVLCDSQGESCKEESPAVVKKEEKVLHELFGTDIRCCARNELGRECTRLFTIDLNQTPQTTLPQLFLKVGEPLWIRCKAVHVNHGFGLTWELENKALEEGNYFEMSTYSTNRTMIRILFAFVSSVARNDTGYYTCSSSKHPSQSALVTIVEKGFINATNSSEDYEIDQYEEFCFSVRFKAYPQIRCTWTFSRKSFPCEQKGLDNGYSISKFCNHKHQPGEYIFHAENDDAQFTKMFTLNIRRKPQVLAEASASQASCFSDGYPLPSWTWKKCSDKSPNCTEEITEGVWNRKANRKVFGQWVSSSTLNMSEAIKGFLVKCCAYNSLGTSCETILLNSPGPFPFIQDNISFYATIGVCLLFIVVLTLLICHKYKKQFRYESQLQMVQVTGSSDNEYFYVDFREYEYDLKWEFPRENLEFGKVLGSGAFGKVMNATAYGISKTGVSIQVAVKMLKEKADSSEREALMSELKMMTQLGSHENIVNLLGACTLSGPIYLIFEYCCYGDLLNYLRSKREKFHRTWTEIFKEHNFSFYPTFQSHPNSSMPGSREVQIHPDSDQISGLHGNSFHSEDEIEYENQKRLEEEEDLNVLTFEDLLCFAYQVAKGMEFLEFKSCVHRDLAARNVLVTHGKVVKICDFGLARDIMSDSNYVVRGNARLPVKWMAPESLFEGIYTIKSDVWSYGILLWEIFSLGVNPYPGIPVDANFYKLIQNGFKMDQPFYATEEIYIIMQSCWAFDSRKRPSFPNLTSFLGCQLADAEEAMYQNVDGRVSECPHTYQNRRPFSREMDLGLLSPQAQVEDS

IC50 (Mer): 0.55 µM
IC50 (Axl): 7 µM
IC50 (Tyro3): 15 µM
IC50 (FLT3): 0.22 µM
Structure (SMILES): CCCCN(C)c1ncc2c(-c3ccc(F)cc3)nn(C[C@H]3CC[C@H](N)CC3)c2n1 [UNC1653, reference compound]
